Results: US20240327463A1, “ANTIBACTERIAL PRODUCTS” (priority 2017, published 2024)
Values after ≈ are worked out from the molar mass of the structure shown. Bridge positions count the residues as written; N and C are the ends. Square brackets hold non-standard residues; d marks the D form. Peptide text beside a SMILES is read from it. * marks the point of attachment. ξ: configuration not given here. dNMeF = CN[C@H](Cc1ccccc1)C(=O)O; Ile(3ξ) = CCC(C)[C@H](N)C(=O)O; X2 = O=C(CCCCCN1CNC(=S)NC1)*; X3 = O=C(CCCN1CNC(=S)NC1)*; X4 = O=C(CN1CNC(=S)NC1)*

Legend:
[1] = tested on: VRE ATCC 700802; experiment: microbe, parasite or virus in culture; details: ATCC 700802
Experimental: (§1) For MIC testing all peptides were dissolved in DMSO (according to the method of L. L. Ling, et al., Nature 2015, 517, 455-459). Bacteria were grown on Mueller Hinton broth (oxoid). All incubations were at 37° C. Dilutions were carried out using Mueller Hinton. 100 μl of autoclaved Mueller Hinton broth was added to wells 2-12 on a 96-well plate. 200 μl of the peptide was added to well one at a concentration of 512 μg/ml. 100 μl of peptide in well one was taken up and pipetted into well two. The mixture was then mixed via pipetting before 100 μl was taken up and pipetted into well three. This process was repeated up to well 11. […] This was repeated three times. The 96-well plates were then incubated for 24 hours. The MIC was determined to be the lowest concentration at which there was no growth visible.

[2] = tested on: MRSA DR 42412 (sputum); experiment: microbe, parasite or virus in culture; details: DR 42412 (sputum)
Experimental: as §1

[3] = tested on: M. smegmatis ATCC 607; experiment: microbe, parasite or virus in culture; details: ATCC 607
Experimental: as §1

[4] = tested on: MRSA ATCC 700699; experiment: microbe, parasite or virus in culture; details: ATCC 700699
Experimental: as §1

[5] = tested on: VRE ATCC 29212; experiment: microbe, parasite or virus in culture; details: ATCC 29212
Experimental: as §1

[6] = tested on: Staphylococcus aureus ATCC 29213; experiment: microbe, parasite or virus in culture; details: ATCC 29213
Experimental: as §1

[7] = tested on: MRSA DM21455 (eye); experiment: microbe, parasite or virus in culture; details: DM21455 (eye)
Experimental: as §1

[8] = tested on: MRSA ATCC 33591
How it was run: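 Peptides were dissolved in DMSO and serially diluted twofold in Mueller Hinton broth from a top concentration of 512 μg/ml. Bacteria were grown in the same broth, and plates were incubated at 37° C for 24 hours. MIC was the lowest concentration showing no visible growth, done three times.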

[9] = tested on: S. aureus ATCC 25923; format: cell-based, Staphylococcus aureus
Experimental: (§2) Bacteria were grown on Mueller Hinton broth (oxoid). All incubations were at 37° C. Dilutions were carried out using Mueller Hinton. […] This process was repeated up to well 11. […] This was repeated three times. […] Results are tabulated in the Examples.

[10] = tested on: MRSA 1003; format: cell-based, Staphylococcus aureus
Experimental: as §2

[11] = tested on: Staphylococcus saprophyticus ATCC 49453; format: cell-based; details: ATCC 49453
Experimental: as §2

[12] = tested on: Staphylococcus saprophyticus ATCC 49907; format: cell-based; details: ATCC 49907
Experimental: as §2

[13] = tested on: Staphylococcus saprophyticus ATCC 15305; format: cell-based; details: ATCC 15305
Experimental: as §2

[14] = tested on: Bacillus Subtilis ATCC 6633; format: cell-based
Experimental: as §2

[15] = tested on: Bacillus Cereus ATCC 11788; format: cell-based
Experimental: as §2

[16] = tested on: SA4299; format: cell-based; details: Table 11
Experimental: as §2

[17] = tested on: Staphylococcus saprophyticus ATCC BAA 750; format: cell-based; details: ATCC BAA 750
Experimental: as §2

[18] = tested on: SE12228; format: cell-based
Experimental: as §2

[19] = tested on: VRE 1001; format: cell-based, Enterococcus faecalis
Experimental: as §2

[20] = tested on: VRE 1004; format: cell-based, Enterococcus faecalis
Experimental: as §2

[21] = tested on: VRE 1002; format: cell-based, Enterococcus faecalis
Experimental: as §2

[22] = tested on: VRE 1008; format: cell-based, Enterococcus faecalis
Experimental: as §2

MIC against S. aureus ATCC 25923 [9]	Structure (SMILES)	MIC [1]	MIC [2]	MIC [4]	MIC [5]	MIC [6]	MIC [7]	MIC [10]	MIC [11]	MIC [12]	MIC [13]	MIC [14]	MIC [15]	MIC [16]	MIC [17]	MIC [18]	MIC [19]	MIC [20]	MIC [21]	MIC [22]	further results
	CC[C@@H](C)[C@@H](NC(=O)[C@@H](CCC(N)=O)NC(=O)[C@H](CO)NC(=O)[C@@H](NC(=O)[C@@H](Cc1ccccc1)NC)[C@@H](C)CC)C(=O)N[C@H](C(=O)N[C@@H](CO)C(=O)N[C@H]1C(=O)N[C@@H](C)C(=O)N[C@@H](CC(C)C)C(=O)N[C@@H]([C@@H](C)CC)C(=O)O[C@H]1C)[C@@H](C)CC [Compound 19, Leu10-teixobactin]	0.25 µg/mL (≈ 0.208 µM)	≤0.0625 µg/mL	0.25 µg/mL (≈ 0.208 µM)	0.25 µg/mL (≈ 0.208 µM)	≤0.0625 µg/mL	≤0.0625 µg/mL														MBC [2]: ≤0.0625 µg/mL; MIC [3]: 1 µg/mL (≈ 0.832 µM); MBC [4]: 2 µg/mL (≈ 1.66 µM); MBC [6]: 0.125 µg/mL (≈ 0.104 µM); MBC [7]: ≤0.0625 µg/mL; MIC (MRSA*) ([8]; ATCC 33591): 0.25 µg/mL (≈ 0.208 µM)
2 µg/mL (≈ 1.46 µM)	CC[C@@H](C)[C@@H](NC(=O)[C@@H](CCC(N)=O)NC(=O)[C@H](CO)NC(=O)[C@@H](NC(=O)[C@@H](Cc1ccccc1)NC)[C@@H](C)CC)C(=O)N[C@H](C(=O)N[C@@H](CO)C(=O)N[C@H]1C(=O)N[C@@H](C)C(=O)N[C@@H](CCCCNC(=O)CN2CNC(=S)NC2)C(=O)N[C@@H]([C@@H](C)CC)C(=O)O[C@H]1C)[C@@H](C)CC [Compound 22, Gly-thiourea-Lys10-teixobactin] (H-[dNMeF]IS[dQ][dI]IS[dT]AK(X4)I; ester 8-C)																				
2 µg/mL (≈ 1.43 µM)	CC[C@@H](C)[C@@H](NC(=O)[C@@H](CCC(N)=O)NC(=O)[C@H](CO)NC(=O)[C@@H](NC(=O)[C@@H](Cc1ccccc1)NC)[C@@H](C)CC)C(=O)N[C@H](C(=O)N[C@@H](CO)C(=O)N[C@H]1C(=O)N[C@@H](C)C(=O)N[C@@H](CCCCNC(=O)CCCN2CNC(=S)NC2)C(=O)N[C@@H]([C@@H](C)CC)C(=O)O[C@H]1C)[C@@H](C)CC [Compound 23, GABA-thiourea-Lys10-teixobactin] (H-[dNMeF]IS[dQ][dI]IS[dT]AK(X3)I; ester 8-C)																				
2 µg/mL (≈ 1.4 µM)	CC[C@@H](C)[C@@H](NC(=O)[C@@H](CCC(N)=O)NC(=O)[C@H](CO)NC(=O)[C@@H](NC(=O)[C@@H](Cc1ccccc1)NC)[C@@H](C)CC)C(=O)N[C@H](C(=O)N[C@@H](CO)C(=O)N[C@H]1C(=O)N[C@@H](C)C(=O)N[C@@H](CCCCNC(=O)CCCCCN2CNC(=S)NC2)C(=O)N[C@@H]([C@@H](C)CC)C(=O)O[C@H]1C)[C@@H](C)CC [Compound 24, Ahx-thiourea-Lys10-teixobactin] (H-[dNMeF]IS[dQ][dI]IS[dT]AK(X2)I; ester 8-C)																				
	CC[C@@H](C)[C@@H](NC(=O)[C@@H](CCC(N)=O)NC(=O)[C@H](CO)NC(=O)[C@@H](NC(=O)[C@@H](Cc1ccccc1)NC)[C@@H](C)CC)C(=O)N[C@H](C(=O)N[C@@H](CO)C(=O)N[C@H]1C(=O)N[C@@H](CCCNC(=N)N)C(=O)N[C@@H](CC(C)C)C(=O)N[C@@H]([C@@H](C)CC)C(=O)O[C@H]1C)[C@@H](C)CC [Compound 27, Arg9-Leu10-teixobactin] (H-[dNMeF]IS[dQ][dI]IS[dT]RLI; ester 8-C)	0.5 µg/mL (≈ 0.389 µM)	<0.0625 µg/mL	0.5 µg/mL (≈ 0.389 µM)	1 µg/mL (≈ 0.777 µM)	0.5 µg/mL (≈ 0.389 µM)	0.25 µg/mL (≈ 0.194 µM)	0.25 µg/mL (≈ 0.194 µM)	<0.0625 µg/mL	<0.0625 µg/mL	<0.0625 µg/mL	<0.0625 µg/mL	0.25 µg/mL (≈ 0.194 µM)	0.25 µg/mL (≈ 0.194 µM)	<0.0625 µg/mL	<0.0625 µg/mL	0.5 µg/mL (≈ 0.389 µM)	0.25 µg/mL (≈ 0.194 µM)	1 µg/mL (≈ 0.777 µM)	0.25 µg/mL (≈ 0.194 µM)	MIC (MRSA) ([8]; ATCC 33591): 0.125 µg/mL (≈ 0.0972 µM)
	CC[C@@H](C)[C@@H](NC(=O)[C@@H](CCCNC(=N)N)NC(=O)[C@H](CCCNC(=N)N)NC(=O)[C@@H](NC(=O)[C@@H](Cc1ccccc1)NC)[C@@H](C)CC)C(=O)N[C@H](C(=O)N[C@@H](CO)C(=O)N[C@H]1C(=O)N[C@@H](C)C(=O)N[C@@H](CC(C)C)C(=O)N[C@@H]([C@@H](C)CC)C(=O)O[C@H]1C)[C@@H](C)CC [Compound 28, Arg3-D-Arg4-Leu10-teixobactin] (H-[dNMeF]IR[dR][dI]IS[dT]ALI; ester 8-C)	2 µg/mL (≈ 1.54 µM)	0.25 µg/mL (≈ 0.193 µM)	0.5 µg/mL (≈ 0.385 µM)	1 µg/mL (≈ 0.77 µM)	0.25 µg/mL (≈ 0.193 µM)	0.5 µg/mL (≈ 0.385 µM)	1 µg/mL (≈ 0.77 µM)	<0.0625 µg/mL	<0.0625 µg/mL	<0.0625 µg/mL	<0.0625 µg/mL	1 µg/mL (≈ 0.77 µM)	0.25 µg/mL (≈ 0.193 µM)	<0.0625 µg/mL	<0.0625 µg/mL	1 µg/mL (≈ 0.77 µM)	0.5 µg/mL (≈ 0.385 µM)	1 µg/mL (≈ 0.77 µM)	0.5 µg/mL (≈ 0.385 µM)	MIC against MRSA ATCC 33591 [8]: 0.25 µg/mL (≈ 0.193 µM)
	CC[C@@H](C)[C@@H](NC(=O)[C@@H](CCCNC(=N)N)NC(=O)[C@H](CO)NC(=O)[C@@H](NC(=O)[C@@H](Cc1ccccc1)NC)[C@@H](C)CC)C(=O)N[C@H](C(=O)N[C@@H](CO)C(=O)N[C@H]1C(=O)N[C@@H](CCCNC(=N)N)C(=O)N[C@@H](CC(C)C)C(=O)N[C@@H]([C@@H](C)CC)C(=O)O[C@H]1C)[C@@H](C)CC [Compound 30, D-Arg4-Arg9-Leu10-teixobactin] (H-[dNMeF]IS[dR][dI]IS[dT]RLI; ester 8-C)	1 µg/mL (≈ 0.761 µM)	1 µg/mL (≈ 0.761 µM)	1 µg/mL (≈ 0.761 µM)	1 µg/mL (≈ 0.761 µM)	1 µg/mL (≈ 0.761 µM)	1 µg/mL (≈ 0.761 µM)	0.5 µg/mL (≈ 0.38 µM)	<0.0625 µg/mL	<0.0625 µg/mL	<0.0625 µg/mL	<0.0625 µg/mL	1 µg/mL (≈ 0.761 µM)	0.5 µg/mL (≈ 0.38 µM)	<0.0625 µg/mL	<0.0625 µg/mL	1 µg/mL (≈ 0.761 µM)	1 µg/mL (≈ 0.761 µM)	1 µg/mL (≈ 0.761 µM)	1 µg/mL (≈ 0.761 µM)	MIC against MRSA ATCC 33591 [8]: 1 µg/mL (≈ 0.761 µM)
	CCC(C)[C@@H]1NC(=O)[C@H](CCCNC(=N)N)NC(=O)[C@H](NC(=O)[C@H](CO)NC(=O)[C@@H](NC(=O)[C@H](NC(=O)[C@@H](CCC(N)=O)NC(=O)[C@H](CO)NC(=O)[C@@H](NC(=O)[C@@H](Cc2ccccc2)NC)[C@@H](C)CC)[C@H](C)CC)[C@@H](C)CC)[C@H](C)OC(=O)[C@H]([C@@H](C)CC)NC1=O (some centres unmarked) [Compound 34, Arg9-Ile10-teixobactin] (H-[dNMeF]IS[dQ][dI]IS[dT]R[Ile(3ξ)]I; ester 8-C)	1 µg/mL (≈ 0.777 µM)	0.125 µg/mL (≈ 0.0972 µM)	1 µg/mL (≈ 0.777 µM)	1 µg/mL (≈ 0.777 µM)	1 µg/mL (≈ 0.777 µM)	0.5 µg/mL (≈ 0.389 µM)	0.5 µg/mL (≈ 0.389 µM)	<0.0625 µg/mL	<0.0625 µg/mL	<0.0625 µg/mL	0.125 µg/mL (≈ 0.0972 µM)	0.5 µg/mL (≈ 0.389 µM)	1 µg/mL (≈ 0.777 µM)	<0.0625 µg/mL	<0.0625 µg/mL	1 µg/mL (≈ 0.777 µM)	1 µg/mL (≈ 0.777 µM)	1 µg/mL (≈ 0.777 µM)	1 µg/mL (≈ 0.777 µM)	MIC (MRSA) ([8]; ATCC 33591): 0.25 µg/mL (≈ 0.194 µM)
